Like-named read-outs stand apart in the source and are kept apart here.
Experiments:
[1] = tested on: SARS-CoV2 virus (IND/ILS-01/2020); experiment: Drug assay: viral load by real-time RT-PCR in SARS-CoV2 infected Vero E6 cells; format: cell-based; settings: Vero E6, 0.1 MOI, 24 h treatment, cell-associated viral RNA by RT-PCR
[2] = parameters: method as in PMID 26506265, PMID 24466249, PMID 22454559; settings: cited from earlier work
[3] = in vitro; settings: monkey
[4] = tested on: SARS-CoV2; parameters: method as in PMID 33330842; settings: cited from earlier work
[5] = tested on: Vero E6 cells; settings: Vero E6, MTT, 0.01-20 µM
[6] = tested on: differentially expressed human proteins in COVID-19; settings: ref DGIdb, cited from earlier work
[7] = Severe acute respiratory syndrome coronavirus 2, Vero C1008
[8] = gene TNF, drug-gene interaction listed in DGIdb export

Cc1ccc(-c2cc(C(F)(F)F)nn2-c2ccc(S(N)(=O)=O)cc2)cc1 [Celecoxib]
IC50 [1, 7]: 3.25 µM
can cross blood brain barrier [2]: can cross blood brain barrier
CC50 [3]: > 20 µM

CCN(CCO)CCCC(C)Nc1ccnc2cc(Cl)ccc12 (stereo not shown) [Hydroxychloroquine]
IC50 [1, 7]: 5 µM
CC50 [3]: > 20 µM

OC(c1cc(C(F)(F)F)nc2c(C(F)(F)F)cccc12)C1CCCCN1 (stereo not shown) [Mefloquine]
IC50 [1, 7]: 0.37 µM
CC50 [3]: > 20 µM

CC(C)(O)c1ccccc1CC[C@@H](SCC1(CC(=O)O)CC1)c1cccc(/C=C/c2ccc3ccc(Cl)cc3n2)c1 [Montelukast]
can cross blood brain barrier [2]: can cross blood brain barrier
CC50 [3]: > 20 µM

OC(CNCC(O)C1CCc2cc(F)ccc2O1)C1CCc2cc(F)ccc2O1 (stereo not shown) [Nebivolol]
IC50 [1, 7]: 5.21 µM
inhibition of SARS-CoV2 [4]: submicromolar range
can cross blood brain barrier [2]: can cross blood brain barrier
CC50 [3]: > 20 µM

Capreomycin
IC50 [1]: 1 µM
CC50 [5]: > 20 µM

Ivermectin
IC50 [1]: 5.54 µM
CC50 [5]: 15 µM

B1: DACLIZUMAB (antibody, chains of the INN, looked up, V domains shown)
VH: QVQLVQSGAEVKKPGSSVKVSCKASGYTFTSYRMHWVRQAPGQGLEWIGYINPSTGYTEYNQKFKDKATITADESTNTAYMELSSLRSEDTAVYYCARGGGVFDYWGQGTLVTVSS
VL: DIQMTQSPSTLSASVGDRVTITCSASSSISYMHWYQQKPGKAPKLLIYTTSNLASGVPARFSGSGSGTEFTLTISSLQPDDFATYYCHQRSTYPLTFGQGTKVEVK
interaction_types ([6]; gene IL2RG): inhibitor

B2: ASELIZUMAB (antibody, chains of the INN, looked up, V domains shown)
VH: EVQLVESGGGLVQPGGSLRLSCAASGFTFSTYAMSWVRQAPGKGLEWVASISTGGSTYYPDSVKGRFTISRDNAKNTLYLQMNSLRAEDTAVYYCARDYDGYFDYWGQGTLVTVSS
VL: DIQMTQSPSSLSASVGDRVTITCKASQSVDYDGDSYMNWYQQKPGKAPKLLIYAASNLESGIPSRFSGSGSGTDFTLTISSLQPEDFATYYCQQSNEDPWTFGQGTKVEIK
interaction_types ([6]; gene SELL): inhibitor

B3: OTLERTUZUMAB (antibody, chains of the INN, looked up, V domains shown)
VH: EVQLVQSGAEVKKPGESLKISCKGSGYSFTGYNMNWVRQMPGKGLEWMGNIDPYYGGTTYNRKFKGQVTISADKSISTAYLQWSSLKASDTAMYYCARSVGPFDSWGQGTLVTVSS
VL: EIVLTQSPATLSLSPGERATLSCRASENVYSYLAWYQQKPGQAPRLLIYFAKTLAEGIPARFSGSGSGTDFTLTISSLEPEDFAVYYCQHHSDNPWTFGQGTKVEIK
interaction_types ([6]; gene CD37): antibody

B4: LENOGRASTIM (protein, UniProt P09919 31-207, looked up)
Granulocyte …: TPLGPASSLPQSFLLKCLEQVRKIQGDGAALQEKLVSECATYKLCHPEELVLLGHSLGIPWAPLSSCPSQALQLAGCLSQLHSGLFLYQGLLQALEGISPELGPTLDTLQLDVADFATTIWQQMEELGMAPALQPTQGAMPAFASAFQRRAGGVLVASHLQSFLEVSYRVLRHLAQP
modifications: glycosylated
interaction_types ([6]; gene CSF3R): agonist

B5: TABALUMAB (antibody, chains of the INN, looked up, V domains shown)
VH: QVQLQQWGAGLLKPSETLSLTCAVYGGSFSGYYWSWIRQPPGKGLEWIGEINHSGSTNYNPSLKSRVTISVDTSKNQFSLKLSSVTAADTAVYYCARGYYDILTGYYYYFDYWGQGTLVTVSS
VL: EIVLTQSPATLSLSPGERATLSCRASQSVSRYLAWYQQKPGQAPRLLIYDASNRATGIPARFSGSGSGTDSTLTISSLEPEDFAVYYCQQRSNWPRTFGQGTKVEIK
interaction_types ([6]; gene TNFSF13B, drug-gene interaction listed in DGIdb export): inhibitor

B6: ONERCEPT (protein, UniProt P19438 30-211, looked up)
extracellular domain: LVPHLGDREKRDSVCPQGKYIHPQNNSICCTKCHKGTYLYNDCPGPGQDTDCRECESGSFTASENHLRHCLSCSKCRKEMGQVEISSCTVDRDTVCGCRKNQYRHYWSENLFQCFNCSLCLNGTVHLSCQEKQNTVCTCHAGFFLRENECVSCSNCKKSLECTKLCLPQIENVKGTEDSGTT
modifications: extracellular domain
interaction_types [6, 8]: inhibitor

B7: PEGSUNERCEPT (protein, UniProt P19438 30-211, looked up)
extracellular domain: LVPHLGDREKRDSVCPQGKYIHPQNNSICCTKCHKGTYLYNDCPGPGQDTDCRECESGSFTASENHLRHCLSCSKCRKEMGQVEISSCTVDRDTVCGCRKNQYRHYWSENLFQCFNCSLCLNGTVHLSCQEKQNTVCTCHAGFFLRENECVSCSNCKKSLECTKLCLPQIENVKGTEDSGTT
modifications: extracellular domain PEGylated
interaction_types [6, 8]: inhibitor

B8: CERTOLIZUMAB PEGOL (antibody, chains of the INN, looked up, V domains shown)
VH: EVQLVESGGGLVQPGGSLRLSCAASGYVFTDYGMNWVRQAPGKGLEWMGWINTYIGEPIYADSVKGRFTFSLDTSKSTAYLQMNSLRAEDTAVYYCARGYRSYAMDYWGQGTLVTVSS
VL: DIQMTQSPSSLSASVGDRVTITCKASQNVGTNVAWYQQKPGKAPKALIYSASFLYSGVPYRFSGSGSGTDFTLTISSLQPEDFATYYCQQYNIYPLTFGQGTKVEIK
modifications: Fab' PEGylated
interaction_types [6, 8]: inhibitor
